Experimental data as given in patent US20040192889A1, “Cytotoxic peptides and peptidomimetics based thereon, and methods for use thereof” (priority 2001, published 2004).
Entries after “also recorded” stand apart in the source; their conditions may differ. Residues, ends and D or L forms follow the SMILES beside them. No end group written: not given here. *: point of attachment. Cbz = O=C(OCc1ccccc1)*; CH2F = FC*

Assays:
[1] = tested on: hippocampal neurons; test: Toxicity of transduced peptides to neurons in primary hippocampal cultures (NeuN immunostaining, quantitative image analysis); format: cell-based; settings: for NeuN-immunoreactive (neuronal) population: 10 μM peptide
Description: (§1) Hippocampal or cortical neurons derived from 17-day old rat embryos were plated in modified minimum essential media (MEM-PAK) supplemented with 5% horse serum. Three days later, the cultures were treated with 10 μM cytosine arabinoside (AraC). Twenty-four h later the cells were treated with the peptide conjugates and incubated for an additional 24 or 48 h. Cells were incubated in the presence of 50 μM of the general caspase inhibitor BOC-Asp(Ome)-FMK (BAF) for 30 min prior to addition of peptides or with an equivalent volume of dimethylsulfoxide (DMSO) and then maintained in the presence of the same concentration of the inhibitor for the duration of the experiment. In all experiments involving Aβ, a 1 mM Aβ42 stock solution was used that had been incubated at 37° C. for 48 h and then stored at 4° C. to allow for the formation of Aβ fibrils. Aβ42 was purchased from AnaSpec (San Jose, Calif.).
Peptides were synthesized and purified at the Stanford University Protein and Nucleic Acid (PAN) Facility. All peptide stocks were solubilized in water at 1 or 10 mM concentration. […] A control peptide used was a fusion of the human immunodeficiency virus-1 TAT protein (HIV-TAT) delivery peptide sequence (Hileman et al., FEBS Lett. 415:145-154 (1997) and the first helix of the p75 receptor intracellular domain.
Hippocampal cultures were fixed in 4% paraformaldehyde in 1× phosphate-buffered saline (PBS) for 20 min at room temperature (RT). Cells were then rinsed in 1× PBS and then washed once in 1× Tris-buffered saline (TBS) followed by blocking in 10% donkey serum (Jackson ImmunoResearch Labs, West Grove, Pa.) with 0.1% Triton X-100 in 1×TBS for 1 h at RT. Cultures were incubated overnight in the presence of rabbit anti-GFAP (Sigma, St. Louis) at 1:800 dilution and mouse anti-NeuN (Chemicon, Temecula, Calif.) at 1:100 at 4° C. Negative controls were incubated in 2 mg/ml rabbit and mouse preinimune IgGs (Sigma, St. Louis). All primary antibodies were diluted in 1×TBS containing 10% donkey serum. Cultures were washed for 90 min in 4 changes of 1×TBS and incubated in the presence of donkey anti-rabbit IgG conjugated to Cy3 and donkey anti-mouse IgG conjugated to FITC (Jackson ImmunoResearch Laboratories, Inc., West Grove, Pa.), at 1:250 and 1:400, respectively, in 1×TBS containing 1% donkey serum for 1 h at RT. Cells were washed for 90 min in 4 changes of 1×TBS and mounted in VectaShield-DAPI mounting medium (Vector Laboratories, Burlingame, Calif.). Images were acquired using Nikon Eclipse-800 microscope and Optronics MagnaFire camera and software, and analyzed using Compix Simple PCI software. The total surface area corresponding to red and green fluorescence in each confocal image was determined by image analysis using Simple PCI software (Compix, Inc., Philadelphia).
To investigate whether this was due to a greater sensitivity of neurons than glial cells to DP-APPC31-induced death, 3-day-old rat hippocampal cultures were exposed to increasing concentrations of DP-APPC31 or control DP peptide and fixed 48 h after transduction. The fixed cultures were then immunostained with antibodies specific for GFAP (red) and NeuN (green). A quantitative assessment of the total area of red and green fluorescence present in low-magnification confocal images of representative fields obtained from three independent experiments was performed using a digital image analysis system (SimplePCl, Compix, Inc, Philadelphia).
APLP1C31 induces death in primary hippocampal cultures. […] If this event occurs in vivo, APLP1 would have the potential to generate a pro-apoptotic C-terminal peptide homologous to APPC31. To deterinine whether the peptide generated by caspase cleavage of APLP1 is toxic, a fusion of APLP1C31 to the Antennapedia delivery peptide (DP-APLP1C31) was generated and assayed in protein transduction experiments. […]

[2] = tested on: glial cells; test: Toxicity of transduced peptides to glial cells in primary hippocampal cultures (GFAP immunostaining, quantitative image analysis); format: cell-based, rat
Description: as §1
(§2) Peptides were synthesized and purified at the Stanford University Protein and Nucleic Acid (PAN) Facility. All peptide stocks were solubilized in water at 1 or 10 mM concentration. […]
Hippocampal cultures were fixed in 4% paraformaldehyde in 1× phosphate-buffered saline (PBS) for 20 min at room temperature (RT). […] Images were acquired using Nikon Eclipse-800 microscope and Optronics MagnaFire camera and software, and analyzed using Compix Simple PCI software. The total surface area corresponding to red and green fluorescence in each confocal image was determined by image analysis using Simple PCI software (Compix, Inc., Philadelphia).
To investigate whether this was due to a greater sensitivity of neurons than glial cells to DP-APPC31-induced death, 3-day-old rat hippocampal cultures were exposed to increasing concentrations of DP-APPC31 or control DP peptide and fixed 48 h after transduction. […] A quantitative assessment of the total area of red and green fluorescence present in low-magnification confocal images of representative fields obtained from three independent experiments was performed using a digital image analysis system (SimplePCl, Compix, Inc, Philadelphia). […]

[3] = tested on: primary hippocampal cultures; test: LIVE/DEAD assay (calcein / EthD-1) of primary hippocampal cultures; format: cell-based, rat; settings: for toxicity of Aβ alone: 36 hours
Description: as §1
(§3) Primary hippocampal or cortical neuronal culturesor 293 cells transduced with the different penetratin-peptide conjugates were assayed for viability at 24 and 48 h after transduction by trypan blue exclusion or by conversion of 3-[4,5-Dimethylthiazol-2-yl]-2,5-diphenyltetrazolium bromide; Thiazolyl blue (MTT, Sigma, St. Louis) to formazan by dehydrogenase enzymes (MTT, Sigma, St. Louis) and by the LIVE/DEAD assay (Molecular Probes, Eugene, Oreg.), which distinguishes live cells by the presence of intracellular esterase activity, which results in the conversion of the non-fluorescent cell permeant calcein-AM to the intensely green fluorescent calcein. Calcein is retained witlin live cells. Ethidium homodimer-1 (EthD-1) enters cells with damaged membranes and becomes intensely fluorescent when bonding to nucleic acids. EthD-1 is excluded by the intact plasma membrane of live cells. Media were removed and replaced by 4 μM EthD-1 and 2 μM calcein in PBS. […]
(§4) Aβ exacerbates the sensitivity of hippocampal cultures to C31 toxicity. […] Thirty-six hours later, the cultures were evaluated by the LIVE/DEAD assay. […] Cells were stained with Hoechst 33342 and scored for nuclear condensation.

[4] = tested on: primary hippocampal cultures; test: Viability of primary hippocampal cultures by MTT assay; format: cell-based, rat; settings: increasing concentrations
Description: as §1
Peptides were synthesized and purified at the Stanford University Protein and Nucleic Acid (PAN) Facility. All peptide stocks were solubilized in water at 1 or 10 mM concentration. […] A control peptide used was a fusion of the human immunodeficiency virus-1 TAT protein (HIV-TAT) delivery peptide sequence (Hileman et al., FEBS Lett. 415:145-154 (1997) and the first helix of the p75 receptor intracellular domain. […]

[5] = tested on: primary hippocampal cultures; test: Hoechst 33342 staining of condensed, fragmented (apoptotic) nuclei in primary hippocampal cultures; format: cell-based, rat; settings: for percentage of apoptotic nuclei (Hoechst 33342): cultures preincubated with 5 μM Aβ for 24 h, then exposed to C-C31 or not
Description: as §1, §3, §4

[6] = tested on: N2a neuroblastoma cells; test: Annexin V-FITC staining of transfected N2a cells; format: cell-based, mouse
Description: Mouse N2a neuroblastoma cells were grown at 37° C. and 5% CO2 in […] Dulbecco's modified Eagle's medium and 45% OptiMEM I (Life Technologies) supplemented with 10% fetal bovine serum and 2 mM glutamine. Plasmid constructs were introduced into the N2a cells with the LipofectAMINE plus transfection reagent (Life Technologies) according to the manufacturer's instructions.
N2a cells were plated on glass cover slips treated with polylysine and were transfected as described above. At 24 h after transfection, cells were directly stained with annexin V-FITC for apoptosis in tissue culture media, according to the manufacturer's instructions (annexin V-FITC Apoptosis Detection Kit; Calbiochem, La Jolla, Calif.). After being stained with annexin V-FITC, cells were fixed for 20 min in 4% parafoimaldehyde in phosphate-buffered saline and permeabilized in 0.5% Triton X-100 in phosphate-buffered saline for 5 min. After being blocked in 5% BSA in phosphate-buffered saline, the cells were incubated for 1 h at room temperature with CT15, diluted 1:2,000. In parallel, cells were stained with propidium iodide after annexin V staining and paraformaldehyde fixation but without permeabilization to verify membrane integrity; the combination of amnexin V staining and membrane integrity indicated apoptosis without secondary necrosis. The primary antibody was detected with Texas Red®-conjugated secondary antibody against rabbit (Molecular Probes, Eugene, Oreg.). Negative controls, which included preimmune serum and cells transfected with pcDNA3 (mock transfection), were assayed in parallel using the protocol described above. The cells were analyzed by confocal nmcroscopy using a BioRad MRC-1024 system. Cells in five random fields were counted for each slide, in duplicate for each condition. The number of cells positive and negative for APP or C31 and apoptosis (annexin V-FITC) were determined, and relative risk was calculated (RR=p1/p2)=concordant staining [(+/+) times (−/−)] divided by discordant staining [(+/−) times (−/+)].
Double-labeling of APP and annexin V in N2a cells after transfection was performed. N2a cells were transfected with either APP or C31 followed by staining with annexin V-FITC to visualize apoptotic cells. Transfected cells were immunolocalized with CT15 followed by Texas Red conjugated secondary antibody to visualize APP or C31 expression. When expressed in N2a cells, C31 but not APP is associated with apoptosis. A high proportion of C31 transfected cells are positive for amnexin V-FITC (green outline of the cell; RR=6.3), whereas in APP-expressing cells, annexin V-FITC staining is sparse (RR=0.77). In control cells transfected with pcDNA3 (mock transfection; control), there is no staining with annexin V-FITC and essentially no staining of endogenous APP at this antibody dilution. Images are representations of four different fields of view of each of three separate experiments.

[7] = tested on: primary hippocampal cultures; test: Viability of primary hippocampal cultures by trypan blue exclusion; format: cell-based, rat; settings: 5 μM Aβ
Description: as §1, §2, §4

[8] = synthetic peptide delivered into primary cultures

Compound: COC(=O)C[C@H](NC(=O)OC(C)(C)C)C(=O)CF [BAF, BOC-Asp(Ome)-FMK, reference compound]
- effect of caspase inhibitor on DP-APLP1C31 toxicity ([1]; BAF 50 μM): delayed DP-APLP1C31 toxicity
- effect of caspase inhibitor on DP-APPC31 toxicity ([1]; BAF 50 μM, DP-APPC31 10 μM): delayed the toxicity; also recorded: blocked the toxicity

Compound: CC[C@H](C)[C@H](NC(=O)[C@H](CCCCN)NC(=O)[C@@H](NC(=O)[C@H](CCC(N)=O)NC(=O)[C@H](CCCNC(=N)N)NC(=O)[C@@H](N)CSSC[C@H](N)C(=O)N[C@@H](C)C(=O)N[C@@H](C)C(=O)N[C@H](C(=O)N[C@H](C(=O)N1CCC[C@H]1C(=O)N[C@@H](CCC(=O)O)C(=O)N[C@@H](CCC(=O)O)C(=O)N[C@@H](CCCNC(=N)N)C(=O)N[C@@H](Cc1c[nH]cn1)C(=O)N[C@@H](CC(C)C)C(=O)N[C@@H](CO)C(=O)N[C@@H](CCCCN)C(=O)N[C@@H](CCSC)C(=O)N[C@@H](CCC(N)=O)C(=O)N[C@@H](CCC(N)=O)C(=O)N[C@@H](CC(N)=O)C(=O)NCC(=O)N[C@@H](Cc1ccc(O)cc1)C(=O)N[C@@H](CCC(=O)O)C(=O)N[C@@H](CC(N)=O)C(=O)N1CCC[C@H]1C(=O)N[C@H](C(=O)N[C@@H](Cc1ccc(O)cc1)C(=O)N[C@@H](CCCCN)C(=O)N[C@@H](Cc1ccccc1)C(=O)N[C@@H](Cc1ccccc1)C(=O)N[C@@H](CCC(=O)O)C(=O)N[C@@H](CCC(N)=O)C(=O)N[C@@H](CCSC)C(=O)N[C@@H](CCC(N)=O)C(=O)N[C@@H](CC(N)=O)C(=O)O)[C@@H](C)O)[C@@H](C)O)C(C)C)[C@@H](C)CC)C(=O)N[C@@H](Cc1c[nH]c2ccccc12)C(=O)N[C@@H](Cc1ccccc1)C(=O)N[C@@H](CCC(N)=O)C(=O)N[C@@H](CC(N)=O)C(=O)N[C@@H](CCCNC(=N)N)C(=O)N[C@@H](CCCNC(=N)N)C(=O)N[C@@H](CCSC)C(=O)N[C@@H](CCCCN)C(=O)N[C@@H](Cc1c[nH]c2ccccc12)C(=O)N[C@@H](CCCCN)C(=O)N[C@@H](CCCCN)C(=O)O [DP-APPC31]
- glial (GFAP) population ([2]; 10 μM peptide, 48 h after transduction): significantly reduced
- NeuN-immunoreactive (neuronal) population [1]: significantly reduced; also recorded: markedly reduced
- NeuN-immunoreactive (neuronal) population ([1]; listed as C-C31): marked decrease
- viability of hippocampal neuronal cultures ([3]; 10 μM, 24 h after transduction): marked decrease in viability
- number of viable cells converting MTT into formazan [4]: reduced the number of viable cells
- percentage of apoptotic nuclei (Hoechst 33342) [5]: 72%
- percentage of condensed, fragmented nuclei, concentration dependence ([5]; increasing concentrations, 30 hours after transduction): increase in the percentage of condensed, fragmented nuclei

Compound: CC(C)[C@H](NC(=O)OCc1ccccc1)C(=O)N[C@@H](C)C(=O)N[C@@H](CC(=O)O)C(=O)CF [zVAD.fmk, benzoxycarbonyl-Val-Ala-Asp-CH2F, reference compound] (Cbz-Val-Ala-Asp-CH2F)
- effect on annexin V staining of C31 transfected cells ([6]; zVAD.fmk treatment): decreased annexin V staining of C31 transfected cells to control levels

Compound: APP: wild-type human APP695 expressed from pcDNA3 by transfection
- relative risk (RR) of annexin V-FITC staining with expression ([6]; expression by transfection): 0.77
- annexin V-positive among construct-positive cells ([6]; expression by transfection, no tamoxifen or staurosporine, 24 h): 13±5%

Compound: Aβ: Aβ42 purchased from AnaSpec, stock incubated to allow formation of Aβ fibrils [reference compound]
- toxicity of Aβ alone ([3]; 50 μM): decrease the number of viable cells in the culture substantially
- toxicity of Aβ alone ([3]; concentrations up to 25 μM): No measurable toxicity
- percentage of apoptotic nuclei (Hoechst 33342) [5]: ~9%
- dead cells with Aβ alone [7]: did not increase the number of dead cells

Compound: PMLTLEEQQLRELQRHGYENPTYRFLEERP [APLP1-C31]
- LD50 for glial cells [2, 8]: 35 to 40 µM
- LD50 for neurons [1, 8]: around 3 micromolar
